Tested on: HeLa cells expressing inducible IgM
Assay: Apoptosis (caspase 3 cleavage immunoblot) in HeLa cells expressing inducible IgM
Format: cell-based
Settings: 1 μM, 24 h
Method: In A, HeLa cells expressing inducible IgM (heavy and light chain) were treated with mifepristone to induce IgM expression over a period of 2 weeks. Afterwards, cells were treated with 1 μM crizotinib for 24 h followed by lysis and immunoblotting for caspase 3. […] Cleavage of caspase 3 is indicative of apoptosis induction. + and − indicate cells with or without mifepristone treatment, respectively. B, Concentration-response curves for the effect of crizotinib treatment (24 h) on the viability of three different myeloma cell lines. Results are the means of three independent experiments. C, Expression levels of LTK and ALK mRNA in the indicated myeloma cell lines determined by qPCR.
HeLa cells were cultured in DMEM (GIBCO) supplemented with 10% FCS and 1% Penicillin/Streptomycin (GIBCO). For overexpression of plasmids, cells were transfected using either Fugene 6 or with TransIT-LT1 (Mirus). For knockdown experiments, cells were reverse transfected with 10 nM siRNA (final concentration) using HiPerfect (Qiagen) according to the manufacturer's instructions.
Cells were washed twice with PBS and collected in lysis buffer (50 mM Tris-HCl, pH7.4; 1 mM EDTA, 100 mM NaCl, 0.1% SDS and 1% NP-40) supplemented with proteinase and phosphatase inhibitor (Pierce Protease and Phosphatase Inhibitor Mini Tablets, EDTA-free). […]

## C[C@@H](Oc1cc(-c2cnn(C3CCNCC3)c2)cnc1N)c1c(Cl)ccc(F)c1Cl [crizotinib, 3-[(1R)-1-(2,6-dichloro-3-fluorophenyl)ethoxy]-5-(1-piperidin-4-ylpyrazol-4-yl)pyridin-2-amine]
HeLa cells with chronic increase of secretory burden (IgM 2 weeks)
  apoptosis (caspase 3 cleavage): marked increase in apoptosis
non-secretory HeLa cells
  apoptotic response (caspase 3 cleavage): did not show any apoptotic response

Source: US12465607B2, “ALK inhibitors for treatment of ALK-negative cancer and plasma cell-mediated diseases” (UNIVERSITETET I OSLO, priority 2019, dated 2025)
